We go through 17 compounds from US9388140B2, “Substituted benzimidazoles” (priority 2011, dated 2016).

One may read the IC50 as the midpoint of a concentration-inhibition curve.

The structures appear in SMILES notation.

This assay addresses human kinase Mps-1 (Homo sapiens (Human), UniProt P33981). The assay is described as follows: Mps-1 kinase assay (TR-FRET). The format is biochemical. The settings on record: N-terminally GST-tagged human full length recombinant Mps-1; 10 μM ATP; 1 μM biotinylated peptide substrate; read-out: Mps1 IC50. The method in brief:
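Inhibition of Mps-1 (N-terminal GST fusion, full length) toward a biotinylated peptide is read as Eu-to-XLent TR-FRET. Enzyme level, around 1 nM final, follows lot activity.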
On the technique in general: TR-FRET usually uses a lanthanide donor and a delayed reading to cut background.

Sequence of human kinase Mps-1 (P33981 whole entry, the tested form may be a part): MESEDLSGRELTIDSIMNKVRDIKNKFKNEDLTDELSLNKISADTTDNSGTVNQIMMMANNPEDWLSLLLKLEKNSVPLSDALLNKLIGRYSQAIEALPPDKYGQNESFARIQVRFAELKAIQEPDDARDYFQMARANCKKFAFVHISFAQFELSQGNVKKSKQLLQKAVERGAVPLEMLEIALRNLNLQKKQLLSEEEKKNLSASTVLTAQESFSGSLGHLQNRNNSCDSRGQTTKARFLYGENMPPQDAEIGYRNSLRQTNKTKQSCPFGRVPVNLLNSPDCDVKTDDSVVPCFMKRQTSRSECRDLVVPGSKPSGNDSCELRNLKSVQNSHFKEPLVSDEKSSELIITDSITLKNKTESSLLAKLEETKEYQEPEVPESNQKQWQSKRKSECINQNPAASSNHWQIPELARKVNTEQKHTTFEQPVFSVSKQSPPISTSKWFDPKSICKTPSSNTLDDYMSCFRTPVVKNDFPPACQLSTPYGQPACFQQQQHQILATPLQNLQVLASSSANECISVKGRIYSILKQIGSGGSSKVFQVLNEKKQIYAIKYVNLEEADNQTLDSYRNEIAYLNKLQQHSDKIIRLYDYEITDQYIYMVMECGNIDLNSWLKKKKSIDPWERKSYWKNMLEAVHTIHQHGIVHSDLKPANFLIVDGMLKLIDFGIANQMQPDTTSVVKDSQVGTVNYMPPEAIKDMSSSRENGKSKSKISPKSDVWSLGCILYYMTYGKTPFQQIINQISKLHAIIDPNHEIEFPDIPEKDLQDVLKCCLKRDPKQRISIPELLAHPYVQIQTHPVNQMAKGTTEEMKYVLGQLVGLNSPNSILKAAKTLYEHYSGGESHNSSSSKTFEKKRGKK

As for `COc1ccc(Cc2cc(NCCC(F)(F)F)c3ncn(-c4ccc(C(=O)NC5CC5)c(C)c4)c3c2)cc1F` [Example 106, N-cyclopropyl-4-{6-(3-fluoro-4-methoxybenzyl)-4-[(3,3,3-trifluoropropyl)amino]-1H-benzimidazol-1-yl}-2-methylbenzamide], the IC50 is 0.9 nM. The same measure for `Cc1ccc(F)cc1Oc1cc(NCCC(F)(F)F)c2ncn(-c3ccc(C(=O)NC4CC4)c(C)c3)c2c1` [Example 107, N-cyclopropyl-4-{6-(5-fluoro-2-methylphenoxy)-4-[(3,3,3-trifluoropropyl)amino]-1H-benzimidazol-1-yl}-2-methylbenzamide]: 5.3 nM. Take `Cc1cc(-n2cnc3c(NCCC(F)(F)F)cc(C(=O)c4ccc(O)c(F)c4)cc32)ccc1C(=O)NC1CC1` [Example 108, N-cyclopropyl-4-{6-(3-fluoro-4-hydroxybenzoyl)-4-[(3,3,3-trifluoropropyl)amino]-1H-benzimidazol-1-yl}-2-methylbenzamide]: the 50% inhibitory concentration (IC50) came to 17 nM. The result for `Cc1cc(-n2cnc3c(NCCC(F)(F)F)cc(Oc4cccc(C(F)F)c4)cc32)ccc1C(=O)NC1CC1` [Example 109, N-cyclopropyl-4-{6-[3-(difluoromethyl)phenoxy]-4-[(3,3,3-trifluoropropyl)amino]-1H-benzimidazol-1-yl}-2-methylbenzamide] reads 2.8 nM; that for `COc1ccccc1C(=O)c1cc(NCCC(F)(F)F)c2ncn(-c3ccc(C(=O)NC4CC4)c(C)c3)c2c1` [Example 110, N-cyclopropyl-4-{6-(2-methoxybenzoyl)-4-[(3,3,3-trifluoropropyl)amino]-1H-benzimidazol-1-yl}-2-methylbenzamide], 12 nM; that for `Cc1cc(-n2cnc3c(NCCC(F)(F)F)cc(Oc4cccc(O)c4)cc32)ccc1C(=O)NC1CC1` [Example 111, N-cyclopropyl-4-{6-(3-hydroxyphenoxy)-4-[(3,3,3-trifluoropropyl)amino]-1H-benzimidazol-1-yl}-2-methylbenzamide], 0.6 nM. The result for `CNC(=O)c1ccc(-n2cnc3c(NCC4CCOCC4)cc(Oc4ccc(O)c(F)c4)cc32)cc1C` [Example 112, 4-{6-(3-fluoro-4-hydroxyphenoxy)-4-[(tetrahydro-2H-pyran-4-ylmethyl)amino]-1H-benzimidazol-1-yl}-N,2-dimethylbenzamid] reads 3.6 nM; that for `CCNC(=O)c1ccc(-n2cnc3c(NCC4CCOCC4)cc(Oc4ccc(O)c(F)c4)cc32)cc1C` [Example 113A, N-ethyl-4-{6-(3-fluoro-4-hydroxyphenoxy)-4-[(tetrahydro-2H-pyran-4-ylmethyl)amino]-1H-benzimidazol-1-yl}-2-methylbenzamide], 6.3 nM. Take `CCNC(=O)c1ccc(-n2cnc3c(NCC4CCOCC4)cc(Oc4ccc(OC)c(SC)c4)cc32)cc1C` [Example 113B, N-ethyl-4-{6-[4-methoxy-3-(methylsulfanyl)phenoxy]-4-[(tetrahydro-2H-pyran-4-ylmethyl)amino]-1H-benzimidazol-1-yl}-2-methylbenzamide]: the IC50 is 54 nM. Consider `Cc1cc(-n2cnc3c(NCC4CCOCC4)cc(Oc4ccc(O)c(F)c4)cc32)ccc1C(=O)NC1CC1` [Example 114A, N-cyclopropyl-4-{6-(3-fluoro-4-hydroxyphenoxy)-4-[(tetrahydro-2H-pyran-4-ylmethyl)amino]-1H-benzimidazol-1-yl}-2-methylbenzamide], for which the IC50 worked out at 0.7 nM. The result for `COc1ccc(Oc2cc(NCC3CCOCC3)c3ncn(-c4ccc(C(=O)NC5CC5)c(C)c4)c3c2)cc1SC` [Example 114B, N-cyclopropyl-4-{6-[4-methoxy-3-(methylsulfanyl)phenoxy]-4-[(tetrahydro-2H-pyran-4-ylmethyl)amino]-1H-benzimidazol-1-yl}-2-methylbenzamide] reads 6.7 nM; that for `CNC(=O)c1ccc(-n2cnc3c(NCC4CCOCC4)cc(Oc4ccc(O)cc4F)cc32)cc1C` [Example 115A, 4-{6-(2-fluoro-4-hydroxyphenoxy)-4-[(tetrahydro-2H-pyran-4-ylmethyl)amino]-1H-benzimidazol-1-yl}-N,2-dimethylbenzamide], 7.3 nM. The result for `CNC(=O)c1ccc(-n2cnc3c(NCC4CCOCC4)cc(Oc4ccc(OC)cc4SC)cc32)cc1C` [Example 115B, 4-{6-[4-methoxy-2-(methylsulfanyl)phenoxy]-4-[(tetrahydro-2H-pyran-4-ylmethyl)amino]-1H-benzimidazol-1-yl}-N,2-dimethylbenzamide] reads 28.9 nM; that for `Cc1cc(-n2cnc3c(NCC4CCOCC4)cc(Oc4ccc(O)cc4F)cc32)ccc1C(=O)NC1CC1` [Example 116A, N-cyclopropyl-4-{6-(2-fluoro-4-hydroxyphenoxy)-4-[(tetrahydro-2H-pyran-4-ylmethyl)amino]-1H-benzimidazol-1-yl}-2-methylbenzamide], 1 nM. The same measure for `COc1ccc(Oc2cc(NCC3CCOCC3)c3ncn(-c4ccc(C(=O)NC5CC5)c(C)c4)c3c2)c(SC)c1` [Example 116B, N-cyclopropyl-4-{6-[4-methoxy-2-(methylsulfanyl)phenoxy]-4-[(tetrahydro-2H-pyran-4-ylmethyl)amino]-1H-benzimidazol-1-yl}-2-methylbenzamide]: 2.9 nM; for `CCNC(=O)c1ccc(-n2cnc3c(NCC4CCOCC4)cc(Oc4ccc(O)cc4F)cc32)cc1C` [Example 117A, N-ethyl-4-{6-(2-fluoro-4-hydroxyphenoxy)-4-[(tetrahydro-2H-pyran-4-ylmethyl)amino]-1H-benzimidazol-1-yl}-2-methylbenzamide]: 6.7 nM; for `CCNC(=O)c1ccc(-n2cnc3c(NCC4CCOCC4)cc(Oc4ccc(OC)cc4SC)cc32)cc1C` [Example 117B, N-ethyl-4-[6-{4-methoxy-2-(methylsulfanyl)phenoxy]-4-[(tetrahydro-2H-pyran-4-ylmethyl)amino]-1H-benzimidazol-1-yl}-2-methylbenzamide]: 25.8 nM.
